According to PMC11183015, “In vivo stable ^211At-labeled prostate-specific membrane antigen-targeted tracer using a neopentyl glycol structure” (EJNMMI Radiopharmacy and Chemistry, 2024):
One block for each compound: values may come before it.

Legend:
[1] = target: PSMA (Homo sapiens, UniProt Q04609); experiment: Competitive inhibition of [125I]DCIT binding to LNCaP cells; parameters: endogenous in cells; host or cells: LNCaP (human prostate cancer cell line, RIKEN BRC); details: competitor [125I]DCIT, 37 °C, 1 h
Procedure: The human prostate cancer cell line LNCaP was provided by RIKEN BioResource Center (BRC) through the National BioResource Project of MEXT/AMED, Japan. LNCaP cells were cultured according to protocols prescribed by RIKEN BRC. LNCaP cells were seeded in 24-well plates (~ 1.5 × 10^5 cells/500 µL/well) coated with 0.01% poly-L-lysine (Sigma-Aldrich, Tokyo). After washing twice with assay medium (RPMI 1640 supplemented with 0.5% BSA), 250 µL of assay medium was added to each well. Each PSMA derivative and [^125I]DCIT dissolved in assay medium (250 µL) were added to the well, and the plates were then incubated at 37 °C for 1 h. After removing the assay medium, the cells were washed twice with assay medium (250 µL × 2). All cells were lysed with 1 M NaOH (500 µL), and the solution was collected. The cells were washed twice with PBS (250 µL × 2), and the solution was mixed with the previous solution. The radioactivity in the solution was measured using an auto-well gamma counter. The IC50 value was calculated by fitting with nonlinear regression using GraphPad Prism 8.4.3 (GraphPad Software, Inc., San Diego).

[2] = Biodistribution of radioactivity in normal mice; format: in vivo, mouse; details: normal ddY mice, i.v.
Procedure: Six-week-old male ddY mice were injected via the tail vein with each radiolabeled PSMA derivative. Animals were sacrificed and the organs were dissected at 10 min, 1 h, 3 h, and 6 h after injection. Metabolic cages were used for housing normal mice. The tissues of interest were excised and weighed, and the radioactivity counts in each tissue were determined using an auto-well gamma counter. Each value was expressed as the mean percent injected dose/g tissue ± SD for a group of 3–5 animals, except those for the stomach, intestine, and thyroid.

[3] = test system: LNCaP cell xenografts; experiment: Biodistribution of radioactivity in tumor-bearing mice; format: in vivo, mouse; details: LNCaP tumor-bearing BALB/c-nu/nu mice
Procedure: Animal studies were conducted in accordance with the institutional guidelines approved by the Chiba University Animal Care Committee (Permit No. 4–183). Five-week-old male ddY mice and BALB/c-nu/nu mice were purchased from Japan SLC Inc. (Hamamatsu, Japan). LNCaP cells (5.0 × 10^6 cells) were suspended in 100 μL of PBS and Matrigel (BD Biosciences, Franklin Lakes, NJ, USA) in a 1:1 ratio. Tumor xenograft models were prepared via subcutaneous injection of this LNCaP cell suspension into BALB/c nude mice.
Biodistribution studies were conducted using male BALB/c-nu/nu mice bearing LNCaP cell xenografts at 1 and 3 h postinjection of [^211At]At-NpG-D-PSMA (100 µL, 37 kBq) and 1 and 6 h postinjection of ^125I-labeled PSMA derivative (100 µL, 11.1 kBq). In the blocking study, [^125I]I-NpG-D-PSMA was coinjected with 2-PMPA (50 mg/kg weight) into tumor-bearing mice via the tail vein. At 1 h postinjection, the mice were sacrificed. The tissues of interest were excised and weighed, and the radioactivity counts in each tissue were determined using an auto-well gamma counter. Each value was expressed as the mean percent injected dose/g tissue ± SD for a group of 3–5 animals, except those for the stomach, intestine, and thyroid.

Sequence of PSMA (Q04609 whole entry): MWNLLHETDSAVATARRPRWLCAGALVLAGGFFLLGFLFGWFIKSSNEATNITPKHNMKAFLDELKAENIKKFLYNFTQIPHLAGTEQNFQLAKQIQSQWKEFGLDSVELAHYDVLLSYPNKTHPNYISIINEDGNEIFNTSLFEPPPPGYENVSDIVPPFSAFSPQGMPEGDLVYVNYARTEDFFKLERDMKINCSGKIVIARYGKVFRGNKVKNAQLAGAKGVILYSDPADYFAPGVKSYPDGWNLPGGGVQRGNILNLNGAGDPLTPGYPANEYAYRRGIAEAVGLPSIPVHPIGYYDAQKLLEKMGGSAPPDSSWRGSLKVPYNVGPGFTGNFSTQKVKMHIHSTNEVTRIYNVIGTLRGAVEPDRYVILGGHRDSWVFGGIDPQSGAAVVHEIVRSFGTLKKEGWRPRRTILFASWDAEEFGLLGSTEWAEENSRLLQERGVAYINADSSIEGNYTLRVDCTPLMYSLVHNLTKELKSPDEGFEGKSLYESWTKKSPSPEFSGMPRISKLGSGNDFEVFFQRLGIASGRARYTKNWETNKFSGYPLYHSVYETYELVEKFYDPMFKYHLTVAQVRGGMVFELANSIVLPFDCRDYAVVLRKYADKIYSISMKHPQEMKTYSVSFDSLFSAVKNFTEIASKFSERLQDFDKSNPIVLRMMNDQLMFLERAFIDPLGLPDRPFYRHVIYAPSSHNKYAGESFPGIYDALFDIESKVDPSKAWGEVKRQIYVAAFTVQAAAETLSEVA

SMILES: O=C([O-])CN1CCN(CC(=O)[O-])CCN(CC(=O)NC[C@H]2CC[C@H](C(=O)N[C@@H](Cc3ccc4ccccc4c3)C(=O)NCCCC[C@H](NC(=O)N[C@@H](CCC(=O)O)C(=O)O)C(=O)O)CC2)CCN(CC(=O)[O-])CC1.[Ga+3] [Ga-PSMA-617, reference compound]
IC50 [1]: 7.56 nM

SMILES: O=C(O)CCC(NC(=O)NC(CCCCNC(=O)C(Cc1ccc2ccccc2c1)NC(=O)C(CCC(=O)O)NC(=O)C(CCC(=O)O)NC(=O)COCC(CO)(CO)CI)C(=O)O)C(=O)O [I-NpG-D-PSMA]
IC50 [1]: 6.06 nM

SMILES: O=C(O)CCC(NC(=O)NC(CCCCNC(=O)C(Cc1ccc2ccccc2c1)NC(=O)C(CCC(=O)O)NC(=O)C(CCC(=O)O)NC(=O)COCC(CO)(CO)CI)C(=O)O)C(=O)O [I-NpG-L-PSMA]
IC50 [1]: 4.04 nM

The remaining lines, values ahead:

Radioactivity in Blood ([2]; 10 min): 3.84 ± 0.55 %ID/g | Radioactivity in Bone ([2]; 10 min): 1.54 ± 0.19 %ID/g | Radioactivity in Heart ([2]; 10 min): 1.51 ± 0.13 %ID/g | Radioactivity in Intestine ([2]; 10 min): 1.58 ± 0.17 %ID | Radioactivity in Kidney ([2]; 10 min): 82.9 ± 12.2 %ID/g | Radioactivity in Liver ([2]; 10 min): 0.98 ± 0.13 %ID/g | Radioactivity in Lung ([2]; 10 min): 3.52 ± 0.29 %ID/g | Radioactivity in Muscle ([2]; 10 min): 1.34 ± 0.18 %ID/g | Radioactivity in Neck ([2]; 10 min): 0.03 ± 0.01 %ID | Radioactivity in Pancreas ([2]; 10 min): 1.20 ± 0.22 %ID/g | Radioactivity in Spleen ([2]; 10 min): 1.76 ± 0.68 %ID/g | Radioactivity in Stomach ([2]; 10 min): 0.32 ± 0.03 %ID | Radioactivity in Blood ([2]; 1 h): 0.26 ±0.15 %ID/g | Radioactivity in Bone ([2]; 1 h): 0.20 ± 0.09 %ID/g | Radioactivity in Intestine ([2]; 1 h): 0.83 ± 0.25 %ID | Radioactivity in Kidney ([2]; 1 h): 11.1 ± 3.22 %ID/g | Radioactivity in Liver ([2]; 1 h): 0.15 ± 0.03 %ID/g | Radioactivity in Lung ([2]; 1 h): 0.26 ± 0.12 %ID/g | Radioactivity in Muscle ([2]; 1 h): 0.15 ± 0.07 %ID/g | Radioactivity in Neck ([2]; 1 h): 0.01 ± 0.01 %ID | Radioactivity in Pancreas ([2]; 1 h): 0.11 ± 0.04 %ID/g | Radioactivity in Spleen ([2]; 1 h): 0.12 ± 0.08 %ID/g | Radioactivity in Stomach ([2]; 1 h): 0.57 ± 0.31 %ID | Radioactivity in Heart ([2]; 3 h): 0.02 ± 0.03 %ID/g | Radioactivity in Intestine ([2]; 3 h): 0.21 ± 0.09 %ID | Radioactivity in Kidney ([2]; 3 h): 1.12 ± 0.34 %ID/g | Radioactivity in Liver ([2]; 3 h): 0.06 ± 0.00 %ID/g | Radioactivity in Lung ([2]; 3 h): 0.03 ± 0.02 %ID/g | Radioactivity in Muscle ([2]; 3 h): 0.02 ± 0.02 %ID/g | Radioactivity in Neck ([2]; 3 h): 0.00 ± 0.00 %ID | Radioactivity in Stomach ([2]; 3 h): 0.03 ± 0.02 %ID | Radioactivity in Intestine ([2]; 6 h): 0.34 ± 0.17 %ID | Radioactivity in Kidney ([2]; 6 h): 1.06 ± 0.42 %ID/g | Radioactivity in Liver ([2]; 6 h): 0.05 ±0.01 %ID/g | Radioactivity in Lung ([2]; 6 h): 0.02 ± 0.02 %ID/g | Radioactivity in Muscle ([2]; 6 h): 0.02 ± 0.02 %ID/g | Radioactivity in Neck ([2]; 6 h): 0.00 ± 0.00 %ID | Radioactivity in Stomach ([2]; 6 h): 0.05 ± 0.03 %ID | Radioactivity in Feces ([2]; 6 h, metabolic cages): 0.19 ± 0.12 %ID | Radioactivity in Urine ([2]; 6 h, metabolic cages): 66.7 ± 15.8 %ID
SMILES: O=C([O-])CN1CCN(CC(=O)[O-])CCN(CC(=O)NC[C@H]2CC[C@H](C(=O)N[C@@H](Cc3ccc4ccccc4c3)C(=O)NCCCC[C@H](NC(=O)N[C@@H](CCC(=O)O)C(=O)O)C(=O)O)CC2)CCN(CC(=O)[O-])CC1.[67Ga+3] [[^67Ga]Ga-PSMA-617, reference compound]

Radioactivity in Blood ([3]; 1 h): 0.41 ± 0.10 %ID/g | Radioactivity in Bone ([3]; 1 h): 0.40 ± 0.22 %ID/g | Radioactivity in Heart ([3]; 1 h): 0.65 ± 0.22 %ID/g | Radioactivity in Intestine ([3]; 1 h): 1.94 ± 0.22 %ID | Radioactivity in Kidney ([3]; 1 h): 181 ± 13.5 %ID/g | Radioactivity in Liver ([3]; 1 h): 0.38 ± 0.08 %ID/g | Radioactivity in Lung ([3]; 1 h): 1.84 ± 0.22 %ID/g | Radioactivity in Muscle ([3]; 1 h): 0.30 ± 0.12 %ID/g | Radioactivity in Neck ([3]; 1 h): 0.04 ± 0.03 %ID | Radioactivity in Pancreas ([3]; 1 h): 0.95 ± 0.48 %ID/g | Radioactivity in Spleen ([3]; 1 h): 11.8 ± 1.26 %ID/g | Radioactivity in Stomach ([3]; 1 h): 0.37 ± 0.15 %ID | Radioactivity in Tumor ([3]; 1 h): 13.4 ± 3.17 %ID/g | Radioactivity in Blood ([3]; 3 h): 0.09 ± 0.02 %ID/g | Radioactivity in Bone ([3]; 3 h): 0.29 ± 0.18 %ID/g | Radioactivity in Heart ([3]; 3 h): 0.23 ± 0.08 %ID/g | Radioactivity in Intestine ([3]; 3 h): 1.74 ± 0.39 %ID | Radioactivity in Kidney ([3]; 3 h): 132 ± 37.8 %ID/g | Radioactivity in Liver ([3]; 3 h): 0.11 ± 0.04 %ID/g | Radioactivity in Lung ([3]; 3 h): 0.55 ± 0.06 %ID/g | Radioactivity in Muscle ([3]; 3 h): 0.13 ± 0.09 %ID/g | Radioactivity in Neck ([3]; 3 h): 0.05 ± 0.04 %ID | Radioactivity in Pancreas ([3]; 3 h): 0.27 ± 0.05 %ID/g | Radioactivity in Spleen ([3]; 3 h): 4.67 ± 3.27 %ID/g | Radioactivity in Stomach ([3]; 3 h): 0.55 ± 0.33 %ID | Radioactivity in Tumor ([3]; 3 h): 16.9 ± 8.45 %ID/g
SMILES: O=C(O)CCC(NC(=O)NC(CCCCNC(=O)C(Cc1ccc2ccccc2c1)NC(=O)C(CCC(=O)O)NC(=O)C(CCC(=O)O)NC(=O)COCC(CO)(CO)C[211At])C(=O)O)C(=O)O [[^211At]At-NpG-D-PSMA]
